From patent US10398715B2, “Methods for increasing brain functionality using 2-fucosyl-lactose” (priority 2012, dated 2019)

Assays:
[1] = tested on: hippocampal CA3-CA1 synapse; experiment: Hippocampal LTP response in early stressed maternally deprived mice (fEPSP recordings); assay type: in vivo, C57BL/6 mice; settings: MS-stressed mice, AIN93G diet supplemented with 2-fucosyllactose (~7 mg/day/mouse) for eight weeks; compared with the control groups, p<0.05; FIG. 1
Description: In this Example, the effect of 2-fucosyl-lactose on hippocampal LTP response in early stressed maternally deprived mice was analyzed.
Initially, mice pups were early stressed using a model of maternal separation. Particularly, one day after delivery, C57BL/6 mice pups were sexed and grouped as sham (non-stressed Control group) or maternally separated (MS—stressed group) animals. From day 2 until day 14 after delivery, the MS pups were removed from the dam and kept isolated for a period of 4 hours per day, typically, from 10:00 AM to 2:00 PM, in a thermostatted cup. During the same time period, pups from the sham group were daily handled for a period of five minutes in order to receive the same grade of habituation to a researcher's hands as the MS pups.
Each dam had litters of 4 males and 2 females. Females were allowed to stay with the mother, while males were maternally deprived in order to avoid stressing the dam by removing all of the pups. […]
At the nutritional intervention stage, mice were fed experimental diets for a period of eight weeks. […] The recording electrodes were fixed at the site where a reliable monosynaptic field excitatory post-synaptic potential (fEPSP) was recorded. […]
For evoking LTP, each animal was presented with five 200 Hz, […] trains of pulses at a rate of 1/s. […] After, fEPSPs were recorded again for 30 minutes. […]

[2] = tested on: hippocampal CA3-CA1 synapse; experiment: Paired-pulse test in alert behaving rats; assay type: in vivo, Sprague Dawley rats; settings: 1 g/kg p.o., before, 90 min and 180 min after administration, FIG. 3
Description: (§1) In this Example, the effect of 2FL on LTP of the hippocampal CA3-CA1 synapse in alert behaving rats was analyzed,
(§2) A total of four male Sprague Dawley rats, each 2 months old weighing from 150-200 g, were placed in individual cages with food and water ad libitum. Rats were kept on a 12/12 hour light/dark cycle with constant ambient temperature (22±1° C.) and humidity (50±7%). All tests were conducted during the light cycle.
(§3) The rats were anesthetized with 0.8%-3% isofluorane (available from AstraZeneca, Madrid, Spain) delivered via a home-made mask. […] was administered from a calibrated Fluotec 5 vaporizer (available from Fluotec-Ohmeda, Tewksbury, Mass.) at a flow rate of 1-4 L/min oxygen. Once anesthetized, the rats were implanted with stimulating and recording electrodes in the hippocampus. […] The recording electrodes were fixed at the site where a reliable monosynaptic field excitatory post-synaptic potential (fEPSP) was recorded. […]
(§4) Control values for input/output curves and paired-pulse facilitation in the four rats were determined. […]

[3] = tested on: Acetylcholinesterase (AChE); experiment: Acetylcholinesterase (AChE) levels in zebrafish embryos; assay type: in vivo; settings: zebrafish larvae, 74.73 mg per liter, 24 hours at 26° C.; negative control water; FIG. 5
Description: In this Example, the effect of 2FL on Acetylcholinesterase (AChE) in zebrafish embryos was analyzed.
Zebrafish embryos were grown in water for 96 post-fertilization hours, when eclosion occurs. The larvae were then transferred into a 24-well culture dish and incubated for 24 hours at 26° C. in a dilution of 74.73 mg of 2FL per liter. A negative control (water) and a positive control for AChE (100 mg docosahexaenoic acid/liter) were included in the assay.
After incubation, larvae were homogenized and centrifuged. AChE levels and total protein content were determined in the resultant supernatants. Two separate assays were done in triplicates. Specific AChE activity data were referred to control and analyzed by ANOVA. Bonferroni post hoc tests were used for comparisons.

[4] = tested on: hippocampal CA3-CA1 synapse; experiment: Input/output curves evoked at the hippocampal CA3-CA1 synapse in alert behaving rats; assay type: in vivo, Sprague Dawley rats; settings: 1 g/kg p.o. in gelatin, 90 and 180 minutes after administration vs before, FIG. 2
Description: as §1, §2, §3, §4

[5] = tested on: hippocampal CA3-CA1 synapse; experiment: LTP induction in behaving rats; assay type: in vivo, Sprague Dawley rats; settings: after 15 days of daily administration of 1 g/kg, vs control values, FIG. 4
Description: as §1, §2, §3
For evoking LTP, each rat was presented with five 200 Hz, 100 ms trains of pulses at a rate of 1/s. […] After, fEPSPs were recorded again for 30 minutes. […]

2-fucosyl-lactose [2FL]
potentiation of field excitatory post-synaptic potentials evoked at the hippocampal CA3-CA1 synapse [1]: larger, longer-lasting potentiation | paired-pulse facilitation, differences between the three recording sessions [2]: no significant differences | AChE levels compared to the negative control [3]: significant increase | amplitude of fEPSPs evoked at the CA3-CA1 synapse (input/output curves) [4]: significantly larger | fEPSPs of LTP evoked after HFS of the hippocampal CA3-CA1 synapse [5]: significantly larger fEPSPs than control values
